The source of these data is US4107202A, “Substituted 4,4'-biphenylylene bis(2-thioureylene)di-naphthalenetrisulfonic acids and salts thereof” (American Cyanamid Company, priority 1977, dated 1978).

Counter-ions that a name gives are not always drawn.

The subject of experiment [1] is late components of human complement (C3-C9). In words: Test, Code 035 (C3-C9 inhibitor): lysis of EAC 142 by late components of human complement. Also on record: key: Negative. The experiment is classed as cell-based. The note with it: activity in wells, two-fold serial dilution assay.
Another experiment has as its system whole complement. As to the kind of experiment: Complement Level Reduction Test: whole complement in serum of dosed guinea pigs, capillary tube assay. The note with it: 200 mg/kg. The format is in vivo, guinea pig. An excerpt:
An active inhibitor protects C2 from C1 and C4; (ii) Test, Code 035 (C3-C9 inhibitor) -- This test determines the ability of the late components of human complement (C3-C9) to lyse EAC 142 in the presence of appropriate dilutions of the test compound. An active inhibitor protects EAC 142 from lysis by C3-C9; (iii) Test, Code 036 (C-Shunt inhibitor) -- In this test human erythrocytes rendered fragile are lysed in autologous serum via the shunt pathway activated by cobra venom factor in the presence of appropriate dilutions of the test compound. Inhibition of the shunt pathway results in failure of lysis; (iv) Forssman Vasculitis Test -- Here, the well known complement dependent lesion, Forssman vasculitis, is produced in guinea pigs by intradermal injection of rabbit anti-Forssman antiserum. The lesion is measured in terms of diameter, edema and hemorrhage and the extent to which a combined index of these is inhibited by prior intraperitoneal injection of the test compound at 200 mg/kg is then reported, unless otherwise stated; (v) Forssman Shock Test -- Lethal shock is produced in guinea pigs by an i.v. injection of anti-Forssman antiserum and the harmonic mean death time of treated guinea pigs is compared with that of simultaneous controls; (vi) Complement Level Reduction Test -- In this test, the above dosed guinea pigs, or others, are bled for serum and the complement level is determined in undiluted serum by the capillary tube method of U.S. Pat. No. 3,876,376 and compared to undosed control guinea pigs; and (vii) Cap 50 Test -- Here, appropriate amounts of the test compound are added to a pool of guinea pig serum in vitro, after which the undiluted serum capillary tube assay referred to above is run. The concentration of compound inhibiting 50% is reported.
With reference to Table I, guinea pigs weighing about 300 g were dosed intravenously (i.v.) or intraperitoneally (i.p.) with 200 mg/kg of the test compound dissolved in saline and adjusted to pH 7-8. One hour after dosing, the guinea pigs were decapitated, blood was collected and the serum separated. The serum was tested for whole complement using the capillary tube assay. Percent inhibition was calculated by comparison with simultaneous controls. The results appear in Table I together with results of tests, code 026, 035, 036, Cap 50, % inhibition and Forssman shock.

The test system of another experiment is shunt pathway. As to the kind of experiment: Test, Code 036 (C-Shunt inhibitor): lysis of fragile human erythrocytes in autologous serum via the shunt pathway activated by cobra venom factor. Also on record: key: Negative. The experiment is classed as cell-based. The following applies: activity in wells, two-fold serial dilution assay.
The next experiment deals with complement system. The following applies: reported in literature; cited from earlier work.
The conditions of experiment [2]: The New England Journal of Medicine, 286, 808-812 (1972); cited from earlier work.

Regarding `O=S(=O)(O)c1cc(NC(=S)Nc2ccc(-c3ccc(NC(=S)Nc4cc(S(=O)(=O)O)cc5cc(S(=O)(=O)O)cc(S(=O)(=O)O)c45)cc3S(=O)(=O)O)c(S(=O)(=O)O)c2)c2c(S(=O)(=O)O)cc(S(=O)(=O)O)cc2c1` [8,8'-[(2,2'-Disulfo-4,4'-biphenylylene)bis(2-thioureylene)]di-1,3,6-naphthalenetrisulfonic acid octasodium salt], the “C-Late 035 Wells” value in experiment [1] is listed as “N”. Moreover, the “In Vivo Activity (Guinea Pig) % Inhibition” value with whole complement (intraperitoneal, 30 min) is recorded as -55%; in the experiment on whole complement (intraperitoneal, 60 min), -55%; in the experiment with whole complement (intraperitoneal, 120 min) it was -70%; in the experiment with whole complement (intravenous, 2 min) it was -92%; with whole complement (intravenous, 30 min), -46%; in the experiment with whole complement (intravenous, 120 min), -31%. In addition, the “Shunt Inhibition 036 Wells” value with shunt pathway is recorded as “N”.

Consider `Cc1ccc(C(=O)Nc2ccc(S(=O)(=O)O)c3cc(S(=O)(=O)O)cc(S(=O)(=O)O)c23)cc1NC(=O)c1cccc(NC(=O)Nc2cccc(C(=O)Nc3cc(C(=O)Nc4ccc(S(=O)(=O)O)c5cc(S(=O)(=O)O)cc(S(=O)(=O)O)c45)ccc3C)c2)c1` [Suramin], for which the “complement inhibiting / anticomplementary effect” value with complement system is recorded as “competitive inhibitor of the complement system”.

On to `Nc1ccc2cc(S(=O)(=O)O)cc(O)c2c1N=Nc1ccc(NC(=O)Nc2ccc(N=Nc3c(N)ccc4cc(S(=O)(=O)O)cc(O)c34)c(S(=O)(=O)O)c2)cc1S(=O)(=O)O` [chlorazol fast pink, 3,3'-ureylenebis-[6-(2-amino-8-hydroxy-6-sulfo-1-naphthylazo)]benzenesulfonic acid, tetrasodium salt], for which, in the experiment on complement system, the “complement inhibiting / anticomplementary effect” value is given as “anticomplementary effect”.

As to `NCCCCCC(=O)O` [epsilon-aminocapronic acid], the “use in the treatment of hereditary angioneurotic edema” value in experiment [2] was “used with success”.

For the compound `NC[C@H]1CC[C@H](C(=O)O)CC1` [tranexamic acid], the “use in the treatment of hereditary angioneurotic edema” value in experiment [2] is recorded as “used with success”.

For heparin, the “complement inhibiting / anticomplementary effect” value with complement system is given as “anticomplementary effect”.
